Measurements published in patent US8895733B2 (Novartis AG, priority 2010, dated 2014).

Target: T1, Nav 1.7 (Homo sapiens, UniProt Q15858)
T1 construct: expressed in transfected cells
Assay: Whole-cell voltage clamp electrophysiology, automated patch clamp (marker c in Table of Examples)
Assay type: cell-based
Details: marker c = Automated patch clamp data; read-out: Nav 1.7 activity
Outline: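 Human NaV1.7 currents were recorded by whole-cell automated patch clamp, on IonWorks Quattro or another automated platform, typically in perforated-patch configuration. The stimulus protocol was designed to probe block mainly of the inactivated state, with a typical sweep stepping from about −65 mV holding to −10 mV, then −100 mV.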

T1 sequence (Q15858 whole entry): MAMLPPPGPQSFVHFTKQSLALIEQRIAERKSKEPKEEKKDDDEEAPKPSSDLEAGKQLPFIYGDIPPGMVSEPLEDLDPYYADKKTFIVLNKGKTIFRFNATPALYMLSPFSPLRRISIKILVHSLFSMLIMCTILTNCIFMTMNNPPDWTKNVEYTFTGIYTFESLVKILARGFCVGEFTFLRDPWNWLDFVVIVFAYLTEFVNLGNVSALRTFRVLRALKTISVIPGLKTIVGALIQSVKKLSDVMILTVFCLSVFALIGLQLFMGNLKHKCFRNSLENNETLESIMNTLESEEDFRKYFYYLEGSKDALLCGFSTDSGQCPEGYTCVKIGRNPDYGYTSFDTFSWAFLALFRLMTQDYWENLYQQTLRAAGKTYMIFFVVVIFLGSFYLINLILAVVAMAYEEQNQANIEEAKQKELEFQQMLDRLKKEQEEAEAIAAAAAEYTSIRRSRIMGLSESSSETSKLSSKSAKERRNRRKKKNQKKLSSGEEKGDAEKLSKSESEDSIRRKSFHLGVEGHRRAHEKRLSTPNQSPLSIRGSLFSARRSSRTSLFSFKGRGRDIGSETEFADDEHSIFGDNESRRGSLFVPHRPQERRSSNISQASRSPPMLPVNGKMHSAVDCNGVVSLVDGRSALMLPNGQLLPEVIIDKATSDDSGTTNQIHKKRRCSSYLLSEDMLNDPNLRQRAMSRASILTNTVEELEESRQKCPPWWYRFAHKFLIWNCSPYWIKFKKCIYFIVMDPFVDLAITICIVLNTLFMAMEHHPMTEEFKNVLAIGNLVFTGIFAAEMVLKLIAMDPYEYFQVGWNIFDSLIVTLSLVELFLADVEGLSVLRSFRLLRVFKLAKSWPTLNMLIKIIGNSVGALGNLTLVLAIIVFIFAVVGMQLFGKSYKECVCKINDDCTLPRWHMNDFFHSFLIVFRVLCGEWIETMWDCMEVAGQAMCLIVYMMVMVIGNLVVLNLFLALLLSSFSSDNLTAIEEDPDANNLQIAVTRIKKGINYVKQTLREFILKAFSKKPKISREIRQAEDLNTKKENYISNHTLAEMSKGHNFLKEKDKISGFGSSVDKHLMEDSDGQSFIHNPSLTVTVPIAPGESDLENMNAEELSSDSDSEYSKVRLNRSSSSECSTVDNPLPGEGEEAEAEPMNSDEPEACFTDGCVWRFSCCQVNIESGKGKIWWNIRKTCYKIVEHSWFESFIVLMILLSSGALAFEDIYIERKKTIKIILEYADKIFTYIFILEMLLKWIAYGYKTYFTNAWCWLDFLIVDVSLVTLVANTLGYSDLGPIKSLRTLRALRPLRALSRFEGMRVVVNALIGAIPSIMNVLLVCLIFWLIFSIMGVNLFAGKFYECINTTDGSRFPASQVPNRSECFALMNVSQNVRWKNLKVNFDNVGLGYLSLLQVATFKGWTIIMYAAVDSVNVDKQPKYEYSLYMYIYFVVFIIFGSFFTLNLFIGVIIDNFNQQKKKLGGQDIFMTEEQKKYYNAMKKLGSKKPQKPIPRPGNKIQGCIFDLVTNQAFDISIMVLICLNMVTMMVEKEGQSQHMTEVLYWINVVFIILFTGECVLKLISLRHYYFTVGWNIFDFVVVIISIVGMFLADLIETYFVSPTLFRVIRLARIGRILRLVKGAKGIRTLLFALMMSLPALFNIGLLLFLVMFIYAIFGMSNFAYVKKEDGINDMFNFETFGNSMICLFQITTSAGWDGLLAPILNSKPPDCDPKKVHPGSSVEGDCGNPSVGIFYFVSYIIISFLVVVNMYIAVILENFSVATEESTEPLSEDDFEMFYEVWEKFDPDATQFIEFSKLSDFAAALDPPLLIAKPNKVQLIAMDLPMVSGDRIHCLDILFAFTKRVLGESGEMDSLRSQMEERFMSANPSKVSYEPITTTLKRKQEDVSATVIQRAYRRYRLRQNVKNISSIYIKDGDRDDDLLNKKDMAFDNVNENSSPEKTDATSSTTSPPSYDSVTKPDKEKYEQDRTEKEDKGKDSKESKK

| Compound | IC50 [nM] |
| --- | --- |
| CC(C)S(=O)(=O)N1CCN(c2nc(-c3nc(N)nc(N(C)c4ccccc4)n3)no2)CC1 [Example 504, 2-N-methyl-2-N-phenyl-6-{5-[4-(propane-2-sulfonyl)piperazin-1-yl]-1,2,4-oxadiazol-3-yl}-1,3,5-triazine-2,4-diamine] | > 5370 |
| CN(c1ccccc1)c1nc(N)nc(-c2noc(C3CCN(C(=O)OC(C)(C)C)CC3)n2)n1 [Example 505, tert-butyl 4-(3-{4-amino-6-[methyl(phenyl)amino]-1,3,5-triazin-2-yl}-1,2,4-oxadiazol-5-yl)piperidine-1-carboxylate] | 982 |
| CN(c1ccccc1)c1nc(N)nc(-c2noc(C3CCN(S(=O)(=O)C4CC4)CC3)n2)n1 [Example 506, 6-{5-[1-(cyclopropanesulfonyl)piperidin-4-yl]-1,2,4-oxadiazol-3-yl}-2-N-methyl-2-N-phenyl-1,3,5-triazine-2,4-diamine] | 7100 |
| CC(C)CS(=O)(=O)N1CCC(c2nc(-c3nc(N)nc(N(C)c4ccccc4)n3)no2)CC1 [Example 507, 2-N-methyl-6-(5-{1-[(2-methylpropane)sulfonyl]piperidin-4-yl}-1,2,4-oxadiazol-3-yl)-2-N-phenyl-1,3,5-triazine-2,4-diamine] | 1230 |
| CCC(C)S(=O)(=O)N1CCC(c2nc(-c3nc(N)nc(N(C)c4ccccc4)n3)no2)CC1 (stereo not shown) [Example 508, 6-{5-[1-(butane-2-sulfonyl)piperidin-4-yl]-1,2,4-oxadiazol-3-yl}-2-N-methyl-2-N-phenyl-1,3,5-triazine-2,4-diamine] | 2430 |
| CN(c1ccccc1)c1nc(N)nc(-c2noc(C3CCN(S(=O)(=O)C4CCCC4)CC3)n2)n1 [Example 509, 6-{5-[1-(cyclopentanesulfonyl)piperidin-4-yl]-1,2,4-oxadiazol-3-yl}-2-N-methyl-2-N-phenyl-1,3,5-triazine-2,4-diamine] | 1110 |
| CC(C)CN1CCC(c2nc(-c3nc(N)nc(N(C)c4ccccc4)n3)no2)CC1 [Example 510, 2-N-methyl-6-{5-[1-(2-methylpropyl)piperidin-4-yl]-1,2,4-oxadiazol-3-yl}-2-N-phenyl-1,3,5-triazine-2,4-diamine] | 1260 |
| CC(C)(C)OC(=O)N1CCC(c2nc(-c3nc(N)nc(Nc4ccccc4)n3)no2)CC1 [Example 512, tert-butyl 4-{3-[4-amino-6-(phenylamino)-1,3,5-triazin-2-yl]-1,2,4-oxadiazol-5-yl}piperidine-1-carboxylate] | 603 |
| Nc1nc(Nc2ccccc2)nc(-c2noc(C3CCN(S(=O)(=O)C4CC4)CC3)n2)n1 [Example 513, 6-{5-[1-(cyclopropanesulfonyl)piperidin-4-yl]-1,2,4-oxadiazol-3-yl}-2-N-phenyl-1,3,5-triazine-2,4-diamine] | 631 |
| CCC(C)S(=O)(=O)N1CCC(c2nc(-c3nc(N)nc(Nc4ccccc4)n3)no2)CC1 (stereo not shown) [Example 514, 6-{5-[1-(butane-2-sulfonyl)piperidin-4-yl]-1,2,4-oxadiazol-3-yl}-2-N-phenyl-1,3,5-triazine-2,4-diamine] | 1730 |
| CC(C)S(=O)(=O)N1CCC(c2nc(-c3nc(N)nc(Nc4ccccc4)n3)no2)CC1 [Example 515, 2-N-phenyl-6-{5-[1-(propane-2-sulfonyl)piperidin-4-yl]-1,2,4-oxadiazol-3-yl}-1,3,5-triazine-2,4-diamine] | 797 |
| Nc1nc(Nc2ccccc2)nc(-c2noc(C3CCN(S(=O)(=O)C4CCCC4)CC3)n2)n1 [Example 516, 6-{5-[1-(cyclopentanesulfonyl)piperidin-4-yl]-1,2,4-oxadiazol-3-yl}-2-N-phenyl-1,3,5-triazine2,4-diamine] | > 9560 |
| CN(C)S(=O)(=O)N1CCC(c2nc(-c3nc(N)nc(Nc4ccccc4)n3)no2)CC1 [Example 517, 4-{3-[4-amino-6-(phenylamino)-1,3,5-triazin-2-yl]-1,2,4-oxadiazol-5-yl}-N,N-dimethylpiperidine-1-sulfonamide] | 570 |
